Values of other authors as cited in paper PMC12840679, “Rational Design, Synthesis and Pharmacological Evaluation of Chalcones as Dual-Acting Compounds—Histamine H3 Receptor Ligands and MAO-B Inhibitors” (International Journal of Molecular Sciences, 2026).

Target: hH3R (Homo sapiens, UniProt Q9Y5N1)
Details: HEK293 cells

hH3R, sequence (Q9Y5N1 whole entry): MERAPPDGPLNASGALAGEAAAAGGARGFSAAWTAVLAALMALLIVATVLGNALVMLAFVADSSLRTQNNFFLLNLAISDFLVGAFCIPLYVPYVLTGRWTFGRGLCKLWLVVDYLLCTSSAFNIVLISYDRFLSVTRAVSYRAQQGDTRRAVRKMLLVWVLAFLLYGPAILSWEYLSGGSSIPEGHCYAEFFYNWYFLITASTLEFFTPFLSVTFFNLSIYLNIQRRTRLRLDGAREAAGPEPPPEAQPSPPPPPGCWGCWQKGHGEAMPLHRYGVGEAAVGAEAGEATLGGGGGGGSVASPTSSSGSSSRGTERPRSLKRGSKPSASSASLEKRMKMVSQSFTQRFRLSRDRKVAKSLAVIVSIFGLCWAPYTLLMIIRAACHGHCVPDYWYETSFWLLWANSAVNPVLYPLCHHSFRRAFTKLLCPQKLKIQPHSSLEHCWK

In the case of `CC(C)(C)c1ccc(OCCCN2CCCCC2)cc1` [DL76], the Ki is listed as 58 nM.
